From the supplement of paper PMC10307832

Assays:
Test in all cases: relative viability (nuclei count vs DMSO), 5 days (fraction); higher = more cells survive
[1] = compound: CN(C)C[C@@H]1CCn2cc(c3ccccc32)C2=C(C(=O)NC2=O)c2cn(c3ccccc23)CCO1 [Ruboxistaurin] + CCNC(=O)c1noc(-c2cc(C(C)C)c(O)cc2O)c1-c1ccc(CN2CCOCC2)cc1 [Luminespib] (partner 0.01 µM)
Summary of the method: (§1)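 Lung cancer cell lines in 1536-well plates were dosed by pin tool the day after seeding, either with one drug alone or with a fixed anchor-drug dose plus five library-drug doses (not always all listed) in √10 steps. After 5 days, cells were fixed and their nuclei stained in one step (final 0.05% Triton X-100, 1% formaldehyde, 1 ug/ml Hoechst), then counted on 4× images. Relative viability is the nuclei count in treated wells divided by that in vehicle wells. Values are medians of duplicate plates.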

Ruboxistaurin + AZD7762 = compound: CN(C)C[C@@H]1CCn2cc(c3ccccc32)C2=C(C(=O)NC2=O)c2cn(c3ccccc23)CCO1 [Ruboxistaurin] + NC(=O)Nc1cc(-c2cccc(F)c2)sc1C(=O)N[C@H]1CCCNC1 [AZD7762] (partner 0.2 µM)
Summary of the method: as §1

[2] = compound: CN(C)C[C@@H]1CCn2cc(c3ccccc32)C2=C(C(=O)NC2=O)c2cn(c3ccccc23)CCO1 [Ruboxistaurin] + CC(=O)Nc1cccc(-n2c(=O)n(C3CC3)c(=O)c3c(Nc4ccc(I)cc4F)n(C)c(=O)c(C)c32)c1 [Trametinib] (partner 0.02 µM)
Summary of the method: as §1

[3] = compound: CN(C)C[C@@H]1CCn2cc(c3ccccc32)C2=C(C(=O)NC2=O)c2cn(c3ccccc23)CCO1 [Ruboxistaurin] + O=C(CCCCCCC(=O)Nc1ccccc1)NO [Vorinostat] (partner 1 µM)
Summary of the method: as §1

Ruboxistaurin + OSI-027 = compound: CN(C)C[C@@H]1CCn2cc(c3ccccc32)C2=C(C(=O)NC2=O)c2cn(c3ccccc23)CCO1 [Ruboxistaurin] + COc1cccc2cc(-c3nc([C@H]4CC[C@H](C(=O)O)CC4)n4ncnc(N)c34)[nH]c12 [OSI-027] (partner 0.5 µM)
Summary of the method: as §1

| Cell Line | relative viability ([1]; first compound 0.08 µM) | relative viability ([1]; first compound 0.8 µM) | relative viability ([1]; first compound 2.53 µM) | relative viability ([1]; first compound 8 µM) | relative viability (Ruboxistaurin + AZD7762; first compound 0.08 µM) | relative viability (Ruboxistaurin + AZD7762; first compound 0.8 µM) | relative viability (Ruboxistaurin + AZD7762; first compound 2.53 µM) | relative viability (Ruboxistaurin + AZD7762; first compound 8 µM) | relative viability ([2]; first compound 0.08 µM) | relative viability ([2]; first compound 0.8 µM) | relative viability ([2]; first compound 2.53 µM) | relative viability ([2]; first compound 8 µM) | relative viability ([3]; first compound 0.08 µM) | relative viability ([3]; first compound 0.8 µM) | relative viability ([3]; first compound 2.53 µM) | relative viability ([3]; first compound 8 µM) | relative viability (Ruboxistaurin + OSI-027; first compound 0.08 µM) | relative viability (Ruboxistaurin + OSI-027; first compound 0.8 µM) | relative viability (Ruboxistaurin + OSI-027; first compound 2.53 µM) | relative viability (Ruboxistaurin + OSI-027; first compound 8 µM) |
| --- | --- | --- | --- | --- | --- | --- | --- | --- | --- | --- | --- | --- | --- | --- | --- | --- | --- | --- | --- | --- |
| NCI-H2342 | 0.762 | 0.732 | 0.892 | 0.738 | 0.535 | 0.509 | 0.529 | 0.582 | 0.799 | 0.849 | 0.986 | 0.95 | 0.888 | 0.69 | 0.768 | 0.93 | 0.678 | 0.672 | 0.608 | 0.698 |
| NCI-H2347 | 0.568 | 0.373 | 0.289 | 0.297 | 0.989 | 0.73 | 0.797 | 0.606 | 0.306 | 0.293 | 0.256 | 0.167 | 0.621 | 0.679 | 0.65 | 0.561 | 0.483 | 0.429 | 0.354 | 0.356 |
| NCI-H2405 | 0.818 | 0.606 | 0.804 | 0.699 | 0.817 | 0.701 | 0.8 | 0.715 | 0.727 | 0.597 | 0.727 | 0.616 | 1.08 | 0.988 | 0.97 | 0.982 | 0.652 | 0.592 | 0.633 | 0.56 |
| NCI-H3122 | 0.0884 | 0.1 | 0.11 | 0.0946 | 0.98 | 0.909 | 1.05 | 1.1 | 0.241 | 0.179 | 0.227 | 0.232 | 1.14 | 0.948 | 1.03 | 1.3 | 0.921 | 0.811 | 0.886 | 0.582 |
| PC-3 [JPC-3] | 0.703 | 0.649 | 0.75 | 0.757 | 0.869 | 0.754 | 0.906 | 0.675 | 0.821 | 0.653 | 0.715 | 0.685 | 0.895 | 0.917 | 0.839 | 0.837 | 0.922 | 0.701 | 0.72 | 0.622 |
| PC-14 | 0.159 | 0.144 | 0.184 | 0.154 | 0.391 | 0.33 | 0.346 | 0.439 | 1.05 | 0.667 | 0.73 | 0.527 | 0.892 | 0.668 | 0.785 | 0.648 | 1.12 | 0.721 | 0.811 | 0.452 |
| RERF-LC-KJ | 1.23 | 1.08 | 1.36 | 0.965 | 1.05 | 1.04 | 0.982 | 1.19 | 0.932 | 0.867 | 0.836 | 0.857 | 0.663 | 0.623 | 0.675 | 0.644 | 0.627 | 0.497 | 0.461 | 0.415 |
| SW 900 | 0.216 | 0.194 | 0.177 | 0.177 | 0.625 | 0.501 | 1.09 | 0.568 | 0.785 | 0.972 | 0.912 | 0.693 | 0.738 | 0.47 | 0.603 | 0.496 | 0.555 | 0.5 | 0.593 | 0.422 |
